Experimental data from publication PMC10363979, “Effects of bergapten on the pharmacokinetics of macitentan in rats both in vitro and in vivo” (Frontiers in Pharmacology, 2023).
Where two headings read alike, the source gives them in different places. Values belong to the compound of their own block, whether it stands above or below them.

Assays:
[1] = Stability of macitentan and ACT-132577 in rat plasma (UPLC-MS/MS method validation); format: in vitro ADME
Protocol: (§1) The concentrations of macitentan and ACT-132577 were determined by UPLC-MS/MS, which consisted of an Acquity I-class UPLC system (Waters Corp., Milford, MA, United States) and a Xevo TQD triple quadrupole mass spectrometer (Waters Corporation, Milford, MA, United States) equipped with an electrospray ionization source. Chromatographic separation was performed on an Acquity UPLC BEH C18 column (2.1 × 100 mm, 1.7 μm) at 40°C. The mobile phase was composed of acetonitrile (solvent A) and water containing 0.1% formic acid (solvent B, pH 2.74). The gradient condition of mobile phases was set with a flow rate of 0.4 mL/min as follows: 0–0.5 min, 20% A; 0.5–1 min, 70% A; 1–2 min, 95% A; 2–2.6 min, 20% A. Positive ion and selective multiple reaction monitoring (SRM) modes were used for quantitative analysis with the precursor to product ion transitions of m/z 588.9→203.4 for macitentan, 546.9→200.6 for ACT-132577, and 285.0→193.0 for diazepam. The cone voltage and collision voltage were 28V, 14 V for macitentan, 26V, 28 V for ACT-132577, and 35V, 30 V for diazepam. The mass spectrometry parameters of the source temperature, desolvation temperature, cone gas flow rate, and desolvation gas flow rate were 150°C, 500°C, 50 L/h, and 1000 L/h, respectively.
Method validation, including accuracy, precision, recovery, matrix effects and stability, was conducted in accordance with the guidelines of the FDA and the European Medicines Agency.

[2] = cited from earlier work
[3] = system: ET receptor; set-up: method as in Iglarz et al, 2008; conditions: ref Iglarz et al, 2008, cited from earlier work; for Pharmacological activity of metabolite: Figure 1
[4] = Pharmacokinetic interaction between BP and macitentan in rats (plasma macitentan and ACT-132577); format: in vivo, Sprague-Dawley rats; conditions: for Cmax / Tmax / AUC(0-inf) / AUC(0-t) / CL/F / MRT last / MRT inf / half-life: Sprague-Dawley, rat, plasma, po, 20 mg/kg, macitentan in plasma, macitentan 20 mg/kg oral; for CL/F: read-out: CLz/F (converted); for MRT last: read-out: MRT(0-t); for MRT inf: read-out: MRT(0-∞); for half-life: read-out: t1/2z (converted)
Protocol: as §1
Twelve Sprague-Dawley rats were randomly assigned to two groups. BP (10 mg/kg) was continuously administered daily to rats in the experimental group for 7 days, whereas the 0.5% CMC-Na was orally administered once a day to rats in the control group. Rats were fasted overnight before dosing, with free access to water. Macitentan (20 mg/kg) was intragastrically administered 30 min after the last dose of BP or 0.5% CMC-Na on the seventh day. Blood samples (300 μL) were collected from the tail vein into 1.5 mL Eppendorf tubes containing 10 μL heparin sodium at the time points of 0.083, 0.25, 0.5, 1, 2, 3, 4, 6, 8, 12, 24, and 36 h after macitentan administration. Plasma was obtained after centrifugation of the blood samples at 4,000 rpm for 10 min and stored at −80°C for further analysis. Before UPLC-MS/MS analysis, 100 μL plasma was mixed with 200 μL acetonitrile and 30 μL diazepam (500 ng/mL) and then fractionated at 13,000 rpm for 5 min at 4°C. A 150 μL sample of the supernatant was collected for analysis.
All assays were performed in triplicate, and the results are expressed as mean ± standard deviation. The pharmacokinetic parameters of elimination half-life (t1/2), area under the plasma concentration-time curve (AUC), maximal plasma concentration (Cmax), time to peak plasma concentration, plasma clearance (CLz/F), apparent volume of distribution, and mean residence time were calculated using a non-compartment model with DAS software (version 3.2.8, Lishui People’s Hospital, China). Data analysis, statistical comparisons, and graphs were generated using GraphPad Prism software (version 7.0; GraphPad Software Inc., San Diego, CA, United States). Student’s t-test of variance following the least significant difference method was used for comparisons between the control and experimental groups. Statistical significance was set at p < 0.05.

[5] = system: Rat liver microsomes (RLMs); assay: Inhibition of macitentan metabolism (ACT-132577 formation) by bergapten and Michaelis-Menten kinetics in rat liver microsomes; format: in vitro ADME; conditions: RLMs
Protocol: as §1
(§2) The effects of BP on macitetan metabolism in vitro were investigated using RLMs, HLMs, and rCYP3A4. And, the formation of ACT-132577 was considered as an indicator of inhibitory effect. The 200 μL incubation system contained NADPH (1 mM), potassium phosphate buffer (100mM, pH = 7.4), macitentan, BP, and RLMs (0.3 mg/mL), HLMs (0.2 mg/mL), or rCYP3A4 (0.13 mg/mL). Firstly, a series concentration of macitentan with 1, 2.5, 5, 10, 25, 50 and 100 μM were included in the reaction buffer to determine the Km and Vmax values. Then, a series concentration of BP following 0, 0.01, 0.1, 1, 5, 10, 50 and 100 μM were used for the determination of IC50 value of BP against macitentan. […] The system was pre-incubated at 37°C for 5 min, and 10 μL NADPH was added to initiate the reaction. After incubation for 30 min at 37°C, 200 μL ice-cold acetonitrile and 30 μL diazepam (500 ng/mL) were added to terminate the reaction. The samples were centrifuged at 13,000 rpm for 5 min, and the supernatant fraction (150 μL) was collected for UPLC-MS/MS analysis.

[6] = system: macitentan metabolism (formation of ACT-132577); assay: as above; format: in vitro ADME; conditions: rat, rat liver microsomes, pH 7.4, probe macitentan; RLMs 0.3 mg/mL, 30 min, 37°C; read-out: IC50 of BP on macitentan metabolism
Protocol: as §1, §2

[7] = Plasma Cmax of bergapten in rat (literature); format: in vivo; conditions: 3 mg/kg bergapten, converted from ng/mL, ref Li et al, 2014
[8] = biological target: human liver microsomes (HLMs) (Homo sapiens, UniProt P08684); assay: Inhibition of macitentan metabolism (ACT-132577 formation) by bergapten and Michaelis-Menten kinetics in human liver microsomes; format: in vitro ADME
Protocol: as §1
as §2, with “After incubation for 30 min at 37°C, 200 μL ice-cold acetonitrile and 30 μL diazepam (500 ng/mL) were added to terminate the reaction. The samples were centrifuged at 13,000 rpm for 5 min, and the supernatant fraction (150 μL) was collected for UPLC-MS/MS analysis.” left out

[9] = biological target: macitentan metabolism (formation of ACT-132577) (Homo sapiens, UniProt P08684); assay: as above; format: in vitro ADME; conditions: human, pH 7.4
Protocol: as §1
as §2, with “After incubation for 30 min at 37°C, 200 μL ice-cold acetonitrile and 30 μL diazepam (500 ng/mL) were added to terminate the reaction. The samples were centrifuged at 13,000 rpm for 5 min, and the supernatant fraction (150 μL) was collected for UPLC-MS/MS analysis.” left out

[10] = set-up: method as in Li et al, 2014; conditions: rat, 3 mg/kg bergapten; ref Li et al, 2014; cited from earlier work
[11] = biological target: T1, recombinant human CYP3A4 (rCYP3A4) (Homo sapiens, UniProt P08684); assay: Inhibition of macitentan metabolism (ACT-132577 formation) by bergapten and Michaelis-Menten kinetics in recombinant human CYP3A4; format: in vitro ADME
T1 construct: made in house
Protocol: as §1
as §2, with “After incubation for 30 min at 37°C, 200 μL ice-cold acetonitrile and 30 μL diazepam (500 ng/mL) were added to terminate the reaction. The samples were centrifuged at 13,000 rpm for 5 min, and the supernatant fraction (150 μL) was collected for UPLC-MS/MS analysis.” left out

[12] = Inhibition of macitentan metabolism (ACT-132577 formation) by bergapten and Michaelis-Menten kinetics in rat liver microsomes; format: in vitro ADME; conditions: rat, rat liver microsomes, pH 7.4; RLMs
Protocol: as §1, §2

[13] = set-up: method as in Sidharta et al, 2015; conditions: estimated; ref Sidharta et al, 2015; cited from earlier work
[14] = single dose macitentan, ref Atsmon et al, 2013
[15] = control group (0.5% CMC-Na 7 days)
[16] = experimental group (BP 10 mg/kg daily 7 days)
[17] = with BP 10 mg/kg vs without, p < 0.05

T1 sequence (P08684 whole entry): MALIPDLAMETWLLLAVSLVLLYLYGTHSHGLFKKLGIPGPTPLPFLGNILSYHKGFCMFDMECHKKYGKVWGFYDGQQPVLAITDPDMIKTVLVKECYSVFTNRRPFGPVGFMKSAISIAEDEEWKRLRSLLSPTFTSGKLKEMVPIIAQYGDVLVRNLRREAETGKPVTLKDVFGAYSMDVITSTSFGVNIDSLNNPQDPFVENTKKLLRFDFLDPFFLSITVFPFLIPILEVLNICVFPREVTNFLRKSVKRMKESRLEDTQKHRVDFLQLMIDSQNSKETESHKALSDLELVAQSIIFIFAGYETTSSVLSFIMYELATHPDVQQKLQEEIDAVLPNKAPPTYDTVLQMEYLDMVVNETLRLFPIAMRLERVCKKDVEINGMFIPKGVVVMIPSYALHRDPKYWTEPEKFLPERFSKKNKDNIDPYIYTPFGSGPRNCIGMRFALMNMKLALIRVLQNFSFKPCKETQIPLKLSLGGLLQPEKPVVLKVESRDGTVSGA
Sequence of human liver microsomes (HLMs) (P08684 2-503): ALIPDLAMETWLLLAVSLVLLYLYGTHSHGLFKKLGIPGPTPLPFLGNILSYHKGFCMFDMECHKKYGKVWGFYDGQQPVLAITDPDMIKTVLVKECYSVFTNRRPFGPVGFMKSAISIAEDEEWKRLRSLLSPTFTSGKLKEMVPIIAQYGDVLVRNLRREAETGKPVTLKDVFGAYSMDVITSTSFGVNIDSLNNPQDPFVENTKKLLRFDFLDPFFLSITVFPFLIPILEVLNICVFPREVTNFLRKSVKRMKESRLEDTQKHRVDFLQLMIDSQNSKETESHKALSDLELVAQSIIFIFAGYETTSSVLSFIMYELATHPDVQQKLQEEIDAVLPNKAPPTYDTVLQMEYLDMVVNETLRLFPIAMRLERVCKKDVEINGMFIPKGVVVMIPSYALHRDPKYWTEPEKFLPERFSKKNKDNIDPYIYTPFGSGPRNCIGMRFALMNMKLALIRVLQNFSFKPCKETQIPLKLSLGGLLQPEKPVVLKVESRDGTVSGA
Sequence of macitentan metabolism (formation of ACT-132577) (Homo sapiens, UniProt P08684) (P08684 2-503): as above

Stability RE (%) ([1]; 4°C, 24 h, 30 ng/mL): 106.81%
Stability RE (%) ([1]; 4°C, 24 h, 900 ng/mL): 104.77%
Stability RE (%) ([1]; 4°C, 24 h, 9000 ng/mL): 105.28%
Stability RE (%) ([1]; Room temperature, 6 h, 30 ng/mL): 109.84%
Stability RE (%) ([1]; Room temperature, 6 h, 900 ng/mL): 106.18%
Stability RE (%) ([1]; Room temperature, 6 h, 9000 ng/mL): 107.44%
Stability RE (%) ([1]; −80°C, 7days, 30 ng/mL): 105.76%
Stability RE (%) ([1]; −80°C, 7days, 900 ng/mL): 107.26%
Stability RE (%) ([1]; −80°C, 7days, 9000 ng/mL): 103.40%
Difference in pharmacokinetic parameters, experimental vs control group ([4]; with BP 10 mg/kg vs without, p > 0.05): no significant differences
SMILES: NS(=O)(=O)Nc1ncnc(OCCOc2ncc(Br)cn2)c1-c1ccc(Br)cc1 [ACT-132577]
Change in exposure in the presence of rifampin ([2]; ref Bruderer et al, 2012b): no significant change
Concentrations when macitentan coadministered with St. John’s Wort ([2]; ref Huppertz et al, 2018): unaltered
Exposure decrease in the presence of ketoconazole [2, 14]: 26%
Pharmacological activity of metabolite [3]: Active
Potency relative to macitentan (less potent) ([3]; antagonism of the ET receptor): approximately five-fold

SMILES: CCCNS(=O)(=O)Nc1ncnc(OCC(=O)O)c1-c1ccc(Br)cc1 [ACT-373898]
Pharmacological activity of metabolite [3]: Inactive

SMILES: COc1c2ccoc2cc2oc(=O)ccc12 [BP, 5-methoxypsoralen]
Inhibition mechanism (Lineweaver-Burk) [5]: competitive inhibition
Ki ([5]; competitive inhibition, read-out: Ki of BP on macitentan metabolism): 1390 nM
IC50 at 30 min [6]: 3.84 µM
Cmax [7]: ~2100 nM
Inhibition mechanism (Lineweaver-Burk) ([8]; HLMs): competitive inhibition
Ki ([8]; human, microsomes): 120 nM
IC50 at 30 min [9]: 17.8 µM
Cmax [10]: around 447.72 ± 30.61 ng/mL
Inhibition mechanism (Lineweaver-Burk) ([11]; rCYP3A4): competitive inhibition
IC50 ([11]; rCYP3A4 0.13 mg/mL, 30 min, 37°C, read-out: IC50 of BP on macitentan metabolism): 12.8 µM
Ki ([11]; read-out: Ki of BP on macitentan metabolism): 5.06 µM

Km at 30 min [12]: 4.82 µM
Stability RE (%) ([1]; 4°C, 24 h, 4 ng/mL): 107.57%
Stability RE (%) ([1]; 4°C, 24 h, 160 ng/mL): 104.86%
Stability RE (%) ([1]; 4°C, 24 h, 1,600 ng/mL): 106.50%
Stability RE (%) ([1]; Room temperature, 6 h, 4 ng/mL): 113.51%
Stability RE (%) ([1]; Room temperature, 6 h, 160 ng/mL): 109.43%
Stability RE (%) ([1]; Room temperature, 6 h, 1,600 ng/mL): 105.63%
Stability RE (%) ([1]; −80°C, 7days, 4 ng/mL): 104.39%
Stability RE (%) ([1]; −80°C, 7days, 160 ng/mL): 103.80%
Stability RE (%) ([1]; −80°C, 7days, 1,600 ng/mL): 105.44%
Cmax ([4]; control group): 1340 ng/mL
Tmax ([4]; control group): 1.92 ± 0.8 h
AUC(0-inf) [4, 15]: 7900 ng·h/mL
AUC(0-t) [4, 15]: 7870 ng·h/mL
CL/F ([4]; control group): 43.3 mL/min/kg
MRT last ([4]; control group): 5.48 ± 0.96 h
MRT inf ([4]; control group): 5.6 ± 1.08 h
half-life ([4]; control group): 272 ± 54 min
AUC(0-inf) [4, 16]: 20400 ng·h/mL
AUC(0-t) [4, 16]: 20300 ng·h/mL
Cmax [4, 16]: 3000 ng/mL
Tmax [4, 16]: 2.5 ± 0.55 h
CL/F [4, 16]: 17.8 mL/min/kg
MRT last [4, 16]: 5.91 ± 0.74 h
MRT inf [4, 16]: 6.12 ± 0.8 h
half-life [4, 16]: 304 ± 69 min
CLz/F decreased by, experimental vs control group ([4]; with BP 10 mg/kg vs without): 0.59 fold
AUC(0-t) enhanced by, experimental vs control group [4, 17]: 1.57 fold
AUC(0-∞) enhanced by, experimental vs control group [4, 17]: 1.58 fold
Cmax enhanced by, experimental vs control group [4, 17]: 1.24 fold
SMILES: CCCNS(=O)(=O)Nc1ncnc(OCCOc2ncc(Br)cn2)c1-c1ccc(Br)cc1 [macitentan]
Vmax of macitentan metabolism [5]: 0.50 nmol/min/mg protein
Exposure reduction in the presence of rifampin ([2]; ref Bruderer et al, 2012b): four-fold
Exposure reduced to, coadministered with St. John’s Wort ([2]; ref Huppertz et al, 2018): approximately half
Exposure increase in the presence of ketoconazole [2, 14]: approximately two-fold
oral bioavailability [13]: 74%
